Assay [1] concerns the target T1, ER (Homo sapiens, UniProt P31947). In words: MS (KD,app), ER. It counts as binding. As to conditions: 24 hr incubation.
Assay [2] concerns the target T1, ER. The assay can be described thus: Fp (EC50)/fold-stabilization of peptide, ER. As to conditions: 24 hr incubation. It counts as binding.
For assay [3], the target named is T2, 14-3-3σ(C42)/ERα-pp (Homo sapiens, UniProt P31947, C38N/N42C).
T2 construct: with a truncated C-terminus after T231; His6 (N, cleaved yes); made in house; host or cells: E. coli NiCo21 (DE3), pPROEX HTb
In words: Fluorescence anisotropy, fragment titration to 14-3-3σ(C42) and fluorescein-ERα-pp. As to conditions: 1 μM 14-3-3σ(C42), 100 nM fluorescein-ERα-pp; read-out: EC50 (anisotropy, stabilization of ERα-pp binding). How it is done:
We observed the same trend when we titrated the fragments into a mixture of 1 μM 14-3-3σ(C42) and 100 nM fluorescein-ERα-pp, conditions under which half of the peptide was initially bound. […] The maximum effect was instantaneous at a saturating concentration (100 μM).
Fluorescence Anisotropy. […] Final DMSO concentration in the assay was always 1%. Dilution series of 14-3-3 protein or fragments were made in black, round-bottom 384-microwell plates (Corning) in a final sample volume of 10 μL in triplicates. Fluorescence anisotropy measurements were performed directly and after overnight incubation at room-temperature, using a Tecan Infinite F500 plate reader (filter set λex: 485±20 nm, λem: 535±25 nm). Data reported are at endpoint. EC50 values were obtained from fitting the data with a four-parameter logistic model (4PL) in GraphPad Prism 6.
A general note: In fluorescence polarisation assays a small probe gives low polarisation when free and higher when bound to something large.

Assay [4] deals with T3, 14-3-3/ERα complex (Homo sapiens, UniProt P61981).
T3 construct: the full length 14-3-3γ was dialysis against 25 mM HEPES pH 7.5; made in house; host or cells: E. coli BL21(DE3), pPROEX HTb
T3 sequence (P61981 1-247): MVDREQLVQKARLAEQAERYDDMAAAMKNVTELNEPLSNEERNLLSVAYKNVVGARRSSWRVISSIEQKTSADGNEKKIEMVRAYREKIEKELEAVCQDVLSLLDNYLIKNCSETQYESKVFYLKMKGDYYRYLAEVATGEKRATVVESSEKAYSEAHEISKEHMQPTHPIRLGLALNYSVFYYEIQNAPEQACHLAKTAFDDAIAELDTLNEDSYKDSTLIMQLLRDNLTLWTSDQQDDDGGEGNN
The assay can be described thus: Selectivity screening FA, ERα peptide. In kind it is binding. An excerpt:
Selectivity screening of covalent fragments. Drugging the hub protein 14-3-3 raises the challenge of selectivity. We hypothesized that the high level of cooperative behavior for 14-3-3/Pin1_72/28 complex is a function of the unique functionality and topology of the interface, specifically the +1 and +3 amino acid of Pin1_72 with the covalent fragment. We further rationalized that this cooperativity would likely translate to high selectivity. To test this hypothesis, fragments 13, 27 and 28 were screened at a single fragment concentration (100 μM) against a panel of 13 peptides as diverse representatives of 14-3-3 client proteins, differing in size and hydrophobicity of the +1 amino acid (FIG. 22A).
(§1) Fluorescence Anisotropy (FA) Assays.

For assay [5], the target named is T4, 14-3-3/Pin1_72 complex (Homo sapiens, UniProt P61981).
T4 construct: the full length 14-3-3γ was dialysis against 25 mM HEPES pH 7.5; made in house; host or cells: E. coli BL21(DE3), pPROEX HTb
The assay can be described thus: Cooperativity analysis, 14-3-3 titrations at varied constant fragment concentration. In kind it is binding. As to conditions: 8 μM compound. An excerpt:
Cooperativity in ternary complex formation. In contrast to PPI inhibition, where affinity to one of the protein pockets is the driving force for drug development, design of molecular glues is driven by cooperative ternary complex formation. Both CC50 and SF values are concentration dependent values and might differ based on assay design. […] Cooperative complex formation is often accompanied by structural changes of the interface of a complex which translates to increased stability of the ternary com-plex. In order to assess cooperativity of the ternary complex, fragments 13, 23, 27 and 28 were selected for cooper-activity analysis. The α-factor of the fragments were determined using 14-3-3 titrations in the presence of varied, but constant concentration of fragment in a dose-dependent manner. […] Further, the interval of change in stabilization further describes the systems cooperative behaviour.
However, at higher concentration regimes significant assay interference was observed, probably due to compound aggregation. Fragments 23, 27 and 28 all reached saturation or approached saturation enabling accurate determination of α-factor. […] KD remains constant also at higher concentrations of FC-A, indicating non-specific effects.

Assay [6] has as its target 14-3-3/NFκBp65 peptide (Homo sapiens, UniProt P31947). The assay can be described thus: Fluorescence polarization assay, FITC-NFκBp65 peptide binding to 14-3-3 with increasing fragment. An excerpt:
As the primary assays to test for binding and activity we used X-ray protein crystallography (crystal soaking) and a fluorescence polarization assay (FP) employing a fluorophore-labelled (FITC) version of the NFκBp65 peptide. After some rounds of analogues testing, we were able to identify the molecules' electrochemical properties that are enabling the lysine attach to the carbonyl feature of the fragment. […] This reflects a principal feature of orthosteric PPI stabilization which is based on the direct, simultaneous physical interaction of the stabilizer with both protein partners.
In addition to the hydrophobic interaction of the primary phenyl ring of TCF521-129 with the side chain of Ile46, the 2,6-dimethylmorpholine substituent sits on top of this side chain and additionally contacts with one of its methyl groups Pro47 and Gly48. The opposite methyl is engaging a hydrophobic patch in the ‘roof’ of the 14-3-3 groove comprised of Leu218, Ile219, and […] (FIG. 9B, upper row). […] The potential PPI stabilizing activity of both fragments were tested in a fluorescence polarization assay measuring the binding of a fluorescently-labelled (FITC) NFκBp65 peptide to 14-3-3 in the presence of an increasing concentration of the fragment.

In assay [7] the target is T5, Pin1_72/14-3-3σΔC (Homo sapiens, UniProt P31947).
T5 construct: The 14-3-3σ protein was C-terminally truncated (ΔC) after T231 to enhance crystallization; His6 (cleaved yes); made in house; host or cells: E. coli BL21(DE3), pPROEX HTb
The assay can be described thus: X-ray crystal soaking. In kind it is binding. As to conditions: 10 mM fragment soak. How it is done:
X-Ray Crystallography. […] B-Raf/14-3-3σΔC and Abl1/14-3-3σΔC crystals were grown in a sitting drop set up. […] All crystals were directly flash-frozen in liquid nitrogen and data acquisition took place at either the P11 beamline of […] campus, Hamburg, Germany) or i-03/i-24 beamline of the diamond light source (Oxford, UK) or in-house. Fragment screening was performed by crystal soaking, whereby a final concentration of 10 mM fragment was added to fully grown crystals (final DMSO ≤1%). The fragment/crystal mixtures incubated for seven days prior to data acquisition. The diffraction data were analyzed with […] pipeline and MolRep was used for phasing. For model refinement Coot, Refmac5 and phenix.refine were utilized in iterative cycles. The elbow software of the phenix suite was used for ligand preparation based on fragment SMILES. Figures were generated with PyMOL© (V2.0.6, Schrodinger LLC).

Assay [8] addresses T6, Pin1_72/14-3-3γ (Homo sapiens, UniProt P61981+Q13526).
T6 construct: the full length 14-3-3γ was dialysis against 25 mM HEPES pH 7.5; made in house; host or cells: E. coli BL21(DE3), pPROEX HTb
The assay can be described thus: Fluorescence anisotropy protein titration, Pin1_72/14-3-3γ at constant compound. It counts as binding. As to conditions: based on internal DMSO control and 100 μM fragment.
From the text: Inspired by the binding poses of 3 and 9 we combined their structural features to improve stabilization. […] In case of complex stabilization, a left shift of apparent KD values is expected, here described as stabilization factors (SF).
as §1

T5 sequence (P31947 1-231 limits assumed, stated change not applied, other chains not shown): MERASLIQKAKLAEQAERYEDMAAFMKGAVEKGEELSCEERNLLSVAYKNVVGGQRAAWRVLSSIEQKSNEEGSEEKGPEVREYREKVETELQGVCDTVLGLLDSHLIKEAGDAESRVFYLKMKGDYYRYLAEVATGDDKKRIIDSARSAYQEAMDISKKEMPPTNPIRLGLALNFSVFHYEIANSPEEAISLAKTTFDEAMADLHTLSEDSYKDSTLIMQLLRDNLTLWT
T1 sequence (P31947 whole entry, other chains not shown): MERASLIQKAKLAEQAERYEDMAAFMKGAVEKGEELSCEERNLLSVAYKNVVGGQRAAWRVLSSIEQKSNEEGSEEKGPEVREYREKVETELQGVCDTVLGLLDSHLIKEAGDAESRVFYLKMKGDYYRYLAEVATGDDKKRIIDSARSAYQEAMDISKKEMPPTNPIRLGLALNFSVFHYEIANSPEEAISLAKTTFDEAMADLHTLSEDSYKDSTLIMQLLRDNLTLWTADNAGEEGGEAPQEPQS
Chain of 14-3-3/NFκBp65 peptide (P31947 whole entry, other chains not shown, the tested form may be a part): as the sequence (P31947 whole entry, other chains not shown) above
T2 sequence (P31947 1-231 C38N/N42C, other chains not shown): as the sequence (P31947 1-231 limits assumed, stated change not applied, other chains not shown) above, with C38N, N42C counted along it

A word on the EC50: it is the concentration needed to bring the measured effect to its halfway point. On to `CC(C)(Oc1ccc(Cl)cc1)C(=O)N1CCC(CNC(=O)CCl)CC1`, for which the Kd in assay [1] came out at 84.3 µM. The same compound came in with an EC50 in assay [2] of 38.9 µM. Consider `CC(C)(Oc1ccc(Cl)cc1)C(=O)N1CCC(CCNC(=O)CCl)CC1`, for which, in assay [1], the Kd came to 33.7 µM. In assay [2], a half-maximal effect (EC50) was put at 32.7 µM. On to `C=CC(C)(C)OC[C@H]1O[C@H](O[C@@H]2C3=C([C@H](C)COC(C)=O)C[C@H](O)[C@]3(C)/C=C3/[C@@H](COC)CC[C@H]3[C@@H](C)[C@H]2O)[C@H](O)[C@@H](OC(C)=O)[C@@H]1O` [FC-A, fusicoccane-A], for which, in assay [3], the EC50 was 0.216 µM. `C=CC(C)(C)OC[C@H]1O[C@H](O[C@@H]2C3=C([C@H](C)COC(C)=O)C[C@H](O)[C@]3(C)/C=C3/[C@@H](COC)CC[C@H]3[C@@H](C)[C@H]2O)[C@H](O)[C@@H](OC(C)=O)[C@@H]1O` [FCA, Fusicoccin A, reference compound]: the “stabilization of the 14-3-3/ERα complex” value in assay [4] was 110 fold. The “SF 8 μM” value in assay [5] is recorded as roughly 10. Turning to `CC(=O)N1CCN(S(=O)(=O)c2ccc(C=O)cc2)CC1` [TCF521-123, 4-[(4-acetylpiperazin-1-yl)sulfonyl]benzaldehyde], the PPI stabilizing activity result in assay [6] (highest concentrations tested) is “only a very weak”. On to `CC1CN(S(=O)(=O)c2ccc(C=O)cc2)CC(C)O1` (stereo not shown) [TCF521-129, 4-[(2,6-dimethylmorpholin-4-yl)sulfonyl]benzaldehyde], for which, in assay [6] (read-out: EC50 (stabilizes interaction of peptide with 14-3-3)), the EC50 came out at 370 µM.

For the compound `O=Cc1ccc(-n2ccnc2-c2ccccc2)c(OC(F)(F)F)c1` [compound 20, 4-(2-phenyl-1H-imidazol-1-yl)-3-(trifluoromethoxy)benzaldehyde], the “PDB: electron density due to compound binding” value (“PDB: electron density due” for short) in assay [7] is on record as “n. bind”.

`O=Cc1ccc(-n2ccnc2-c2ccccc2)c(Oc2ccccc2)c1` [compound 21, 3-phenoxy-4-(2-phenyl-1H-imidazol-1-yl)benzaldehyde]: the “PDB: electron density due” value in assay [7] is given as “n. bind”. `O=Cc1ccc(-n2ccnc2-c2ccc(Br)cc2)cc1Br` [compound 24, 2-bromo-4-(2-(4-bromophenyl)-1H-imidazol-1-yl)benzaldehyde]: the “PDB: electron density due” value in assay [7] is listed as “n. bind”. In addition, the “SF (fold stabilization)” value in assay [8] was determined as 3.32.

The values above are taken from patent US20230142739A1, “PROTEIN-PROTEIN INTERACTION STABILIZERS” (The Regents of the University of California, priority 2020, published 2023).
